From US8471005B2 (Cephalon, Inc., priority 2008, dated 2013)
Read-outs that look alike come from different tables or passages of the source.

Columns and labels:
JAK2 = molecular target: T1, JAK2 (Homo sapiens, UniProt O60674); experiment: Recombinant Human JAK2 Kinase Assay (TRF); type: biochemical; conditions: read-out: JAK2 Potency
T1 construct: host or cells: baculovirus expression system
Outline: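 Europium-labelled PY100 antibody reported tyrosine phosphorylation of a Neutravidin-captured biotinyl 15-mer peptide by JAK2 (baculovirus-expressed, 15 ng/ml). Conditions: 20 mM HEPES pH 7.2, 0.2 μM ATP, 1 mM MnCl2, 0.1% BSA, DMSO 2.5% final, 20 min at room temperature.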

ALK = molecular target: T2, ALK (Homo sapiens, UniProt Q9UM73); experiment: ALK Kinase Assay (ELISA/TRF, PLC-γ substrate); type: biochemical; conditions: read-out: ALK Potency
T2 construct: host or cells: baculovirus expression system
T2 sequence (Q9UM73 19-1620): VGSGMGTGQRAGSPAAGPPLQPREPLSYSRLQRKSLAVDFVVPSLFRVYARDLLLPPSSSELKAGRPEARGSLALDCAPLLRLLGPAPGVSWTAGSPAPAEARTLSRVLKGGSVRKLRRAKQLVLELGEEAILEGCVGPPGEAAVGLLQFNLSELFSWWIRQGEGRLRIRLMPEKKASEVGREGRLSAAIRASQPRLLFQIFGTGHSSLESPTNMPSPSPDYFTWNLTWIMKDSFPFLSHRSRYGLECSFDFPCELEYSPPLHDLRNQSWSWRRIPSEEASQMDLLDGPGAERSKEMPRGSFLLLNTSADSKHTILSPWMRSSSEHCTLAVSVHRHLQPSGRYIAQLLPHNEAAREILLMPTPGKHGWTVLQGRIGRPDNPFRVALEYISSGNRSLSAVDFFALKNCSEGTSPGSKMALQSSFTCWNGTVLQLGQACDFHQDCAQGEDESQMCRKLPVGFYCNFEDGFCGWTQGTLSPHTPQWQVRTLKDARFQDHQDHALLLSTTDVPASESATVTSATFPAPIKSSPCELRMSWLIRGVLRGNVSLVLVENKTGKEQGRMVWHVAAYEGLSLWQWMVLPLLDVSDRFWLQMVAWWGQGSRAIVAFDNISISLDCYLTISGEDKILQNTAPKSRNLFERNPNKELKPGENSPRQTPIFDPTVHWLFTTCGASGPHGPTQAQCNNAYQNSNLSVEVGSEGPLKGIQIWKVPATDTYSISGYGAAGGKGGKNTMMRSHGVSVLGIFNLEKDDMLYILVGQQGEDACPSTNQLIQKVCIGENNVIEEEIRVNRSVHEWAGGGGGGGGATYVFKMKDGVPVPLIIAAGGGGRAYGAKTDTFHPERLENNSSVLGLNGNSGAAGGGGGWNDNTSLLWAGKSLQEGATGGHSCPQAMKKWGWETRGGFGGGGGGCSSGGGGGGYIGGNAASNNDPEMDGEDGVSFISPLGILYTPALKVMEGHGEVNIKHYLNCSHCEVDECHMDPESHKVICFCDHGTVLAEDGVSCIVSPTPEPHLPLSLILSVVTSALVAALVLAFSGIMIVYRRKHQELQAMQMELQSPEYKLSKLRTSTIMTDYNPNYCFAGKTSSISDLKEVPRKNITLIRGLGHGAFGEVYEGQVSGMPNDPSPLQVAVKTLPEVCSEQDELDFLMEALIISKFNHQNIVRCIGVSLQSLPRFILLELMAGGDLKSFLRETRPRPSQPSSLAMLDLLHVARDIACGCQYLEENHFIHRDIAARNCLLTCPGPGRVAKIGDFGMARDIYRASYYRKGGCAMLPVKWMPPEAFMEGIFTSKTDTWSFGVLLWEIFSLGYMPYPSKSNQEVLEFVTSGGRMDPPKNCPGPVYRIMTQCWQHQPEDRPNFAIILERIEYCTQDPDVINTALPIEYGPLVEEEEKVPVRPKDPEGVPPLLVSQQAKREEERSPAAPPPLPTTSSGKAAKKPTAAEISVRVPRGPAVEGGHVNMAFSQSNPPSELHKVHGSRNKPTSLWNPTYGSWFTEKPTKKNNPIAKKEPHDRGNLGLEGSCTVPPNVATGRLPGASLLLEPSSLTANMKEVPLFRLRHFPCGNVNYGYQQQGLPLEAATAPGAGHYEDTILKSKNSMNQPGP
Outline: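 First, plates are coated with substrate (phospholipase C-γ, 10 μg/mL, TBS). Next, 30 ng/ml ALK initiates phosphorylation for 15 min at 37° C. Then Eu-N1 PT66 antibody is added for detection, and a nonlinear dose-response fit of percent inhibition yields IC50.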

[1] = JAK2 kinase inhibition, 0.2 μM ATP
[2] = ALK kinase inhibition, 1 μM ATP

T1 sequence (O60674 whole entry): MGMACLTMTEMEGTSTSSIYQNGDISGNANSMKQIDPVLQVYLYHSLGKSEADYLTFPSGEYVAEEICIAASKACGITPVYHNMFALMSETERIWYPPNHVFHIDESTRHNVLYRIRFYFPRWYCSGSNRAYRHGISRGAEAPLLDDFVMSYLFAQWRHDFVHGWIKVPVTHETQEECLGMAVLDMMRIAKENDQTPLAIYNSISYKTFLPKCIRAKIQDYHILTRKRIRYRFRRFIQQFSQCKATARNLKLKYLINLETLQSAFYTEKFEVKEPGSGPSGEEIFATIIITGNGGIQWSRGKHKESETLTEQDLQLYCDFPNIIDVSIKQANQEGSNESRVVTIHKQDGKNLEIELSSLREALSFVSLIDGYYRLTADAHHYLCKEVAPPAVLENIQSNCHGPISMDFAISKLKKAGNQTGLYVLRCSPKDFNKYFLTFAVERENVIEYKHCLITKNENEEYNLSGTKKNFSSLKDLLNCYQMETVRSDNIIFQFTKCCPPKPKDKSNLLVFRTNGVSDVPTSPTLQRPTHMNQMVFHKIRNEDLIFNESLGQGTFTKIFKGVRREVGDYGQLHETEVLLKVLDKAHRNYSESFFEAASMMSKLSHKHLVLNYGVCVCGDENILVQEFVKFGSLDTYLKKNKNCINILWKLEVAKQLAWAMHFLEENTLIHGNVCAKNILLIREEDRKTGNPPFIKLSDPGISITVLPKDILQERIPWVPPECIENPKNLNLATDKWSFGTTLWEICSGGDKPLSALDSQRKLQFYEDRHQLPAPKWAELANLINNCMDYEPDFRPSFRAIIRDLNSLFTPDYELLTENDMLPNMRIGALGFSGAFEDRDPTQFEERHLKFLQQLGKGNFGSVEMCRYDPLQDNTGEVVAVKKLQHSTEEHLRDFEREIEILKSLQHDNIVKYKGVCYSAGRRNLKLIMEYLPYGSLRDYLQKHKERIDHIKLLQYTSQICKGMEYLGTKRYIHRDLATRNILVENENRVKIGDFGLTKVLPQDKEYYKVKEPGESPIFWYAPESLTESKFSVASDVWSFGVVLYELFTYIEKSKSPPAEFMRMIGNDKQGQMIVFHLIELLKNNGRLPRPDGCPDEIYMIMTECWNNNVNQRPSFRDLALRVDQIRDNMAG

| Compound | IC50 (JAK2; [1]) [µM] | IC50 (ALK; [2]) [µM] | IC50 (JAK2; JAK2 Kinase Inhibition) [µM] | IC50 (ALK; ALK Kinase Inhibition) [µM] |
| --- | --- | --- | --- | --- |
| COc1cc(N2CCC(N3CCOCC3)CC2)ccc1Nc1ncc2ccc(-c3cccc(OC)c3OC)n2n1 [Example 1465, [7-(2,3-Dimethoxy-phenyl)-pyrrolo[2,1-f][1,2,4]triazin-2-yl]-[2-methoxy-4-(4-morpholin-4-yl-piperidin-1-yl)-phenyl]-amine] |  |  | < 0.1 | < 0.1 |
| CCS(=O)(=O)c1cccc(-c2ccc3cnc(Nc4ccc5nc(C(F)(F)F)[nH]c5c4)nn23)c1 [Example 1313, [7-(3-Ethanesulfonyl-phenyl)-pyrrolo[2,1-f][1,2,4]triazin-2-yl]-(2-trifluoromethyl-3H-benzimidazol-5-yl)-amine] | < 0.1 | > 10 |  |  |
| CN1CCN(c2ccc(Nc3ncc4ccc(NCc5cccc([N+](=O)[O-])c5)n4n3)cc2)CC1 [Example 1163, N(2)-[4-(4-Methyl-piperazin-1-yl)-phenyl]-N(7)-(3-nitro-benzyl)-pyrrolo[2,1-f][1,2,4]triazine-2,7-diamine] | < 0.1 | 0.1 to 1 |  |  |
| CN1CCN(c2ccc(Nc3ncc4ccc(-c5cccc(CCC#N)c5)n4n3)cc2)CC1 [Example 1142, 3-(3-{2-[4-(4-Methyl-piperazin-1-yl)-phenylamino]-pyrrolo[2,1-f][1,2,4]triazin-7-yl}-phenyl)-propionitrile] | < 0.1 | < 0.1 |  |  |
| C[C@H](O)CN1CCN(c2ccc(Nc3ncc4ccc(-c5cccc(S(=O)(=O)NC(C)(C)C)c5)n4n3)cc2)CC1 [Example 427, N-tert-Butyl-3-(2-{4-[4-((S)-2-hydroxy-propyl)-piperazin-1-yl]-phenylamino}-pyrrolo[2,1-f][1,2,4]triazin-7-yl)-benzenesulfonamide] |  |  | < 0.1 | < 0.1 |
| COc1ccccc1-c1ccc2cnc(-c3nnn[nH]3)nn12 [Example 1502, 7-(2-Methoxy-phenyl)-2-(1H-tetrazol-5-yl)-pyrrolo[2,1-f][1,2,4]triazine] |  |  | > 10 | > 10 |
| COc1cc(N2CCC(N3CCOCC3)CC2)ccc1Nc1ncc2ccc(-c3c(F)cccc3OC)n2n1 [Example 509, [7-(2-Fluoro-6-methoxy-phenyl)-pyrrolo[2,1-f][1,2,4]triazin-2-yl]-[2-methoxy-4-(4-morpholin-4-yl-piperidin-1-yl)-phenyl]-amine] | < 0.1 | < 0.1 |  |  |
| CCCS(=O)(=O)Nc1cccc(-c2ccc3cnc(Nc4ccc(N5CCOCC5)cc4)nn23)c1 [Example 418, Propane-1-sulfonic acid {3-[2-(4-morpholin-4-yl-phenylamino)-pyrrolo[2,1-f][1,2,4]triazin-7-yl]-phenyl}-amide] |  |  | < 0.1 | 0.1 to 1 |
| CN1CCN(c2ccc(Nc3ncc4ccc(-c5ccc(CNCCS(C)(=O)=O)cc5)n4n3)cc2)CC1 [Example 1208, (7-{4-[(2-Methanesulfonyl-ethylamino)-methyl]-phenyl}-pyrrolo[2,1-f][1,2,4]triazin-2-yl)-[4-(4-methyl-piperazin-1-yl)-phenyl]-amine] | < 0.1 | 0.1 to 1 |  |  |
| Cn1ccc(-c2ccc3cnc(Nc4ccc(C5CCN(CC(N)=O)CC5)cc4)nn23)n1 [Example 955] | < 0.1 | 0.1 to 1 |  |  |
| COc1ccc(-c2ccc3cnc(Nc4cccc(N)c4)nn23)cn1 [Example 898, N-[7-(6-Methoxy-pyridin-3-yl)-pyrrolo[2,1-f][1,2,4]triazin-2-yl]-benzene-1,3-diamine] | < 0.1 | 1 to 10 |  |  |
| C[C@@H](O)CN1CCN(c2cccc(Nc3ncc4ccc(-c5cccc(Cl)c5)n4n3)c2)CC1 [Example 215, (R)-1-(4-{3-[7-(3-Chloro-phenyl)-pyrrolo[2,1-f][1,2,4]triazin-2-ylamino]-phenyl}-piperazin-1-yl)-propan-2-ol] |  |  | < 0.1 | < 0.1 |

Continued, values first:

| IC50 (JAK2; [1]) [µM] | IC50 (ALK; [2]) [µM] | IC50 (JAK2; JAK2 Kinase Inhibition) [µM] | IC50 (ALK; ALK Kinase Inhibition) [µM] | Compound |
| --- | --- | --- | --- | --- |
| < 0.1 | 1 to 10 |  |  | COc1ccccc1-c1ccc2cnc(Nc3ccc(N4CCOCC4)cn3)nn12 [Example 1202, [7-(2-Methoxy-phenyl)-pyrrolo[2,1-f][1,2,4]triazin-2-yl]-(5-morpholin-4-yl-pyridin-2-yl)-amine] |
| < 0.1 | 1 to 10 |  |  | COc1ccccc1-c1ccc2cnc(Nc3ccc4cnn(CCN5CCOCC5)c4c3)nn12 [Example 1347, [7-(2-Methoxy-phenyl)-pyrrolo[2,1-f][1,2,4]triazin-2-yl]-[1-(2-morpholin-4-yl-ethyl)-1H-indazol-6-yl]-amine] |
|  |  | < 0.1 | 0.1 to 1 | COc1ccccc1Sc1ccc2cnc(Nc3ccc(N4CCN(C)CC4)cc3)nn12 [Example 98, [7-(2-Methoxy-phenylsulfanyl)-pyrrolo[2,1-f][1,2,4]triazin-2-yl]-[4-(4-methyl-piperazin-1-yl)-phenyl]-amine] |
|  |  | < 0.1 | 0.1 to 1 | COc1ccccc1-c1ccc2cnc(Nc3ccc4c(c3)CC(=O)N4C)nn12 [Example 359, 5-[7-(2-Methoxy-phenyl)-pyrrolo[2,1-f][1,2,4]triazin-2-ylamino]-1-methyl-1,3-dihydro-indol-2-one] |
| < 0.1 | < 0.1 |  |  | COc1cc(Nc2ncc3ccc(-c4ccccc4N(C)S(C)(=O)=O)n3n2)ccc1C1CCN(C)CC1 [Example 913, N-(2-{2-[3-Methoxy-4-(1-methyl-piperidin-4-yl)-phenylamino]-pyrrolo[2,1-f][1,2,4]triazin-7-yl}-phenyl)-N-methyl-methanesulfonamide] |
| < 0.1 | 0.1 to 1 |  |  | COc1ccccc1-c1ccc2cnc(Nc3ccc4nc[nH]c4c3)nn12 [Example 1306, (3H-Benzimidazol-5-yl)-[7-(2-methoxy-phenyl)-pyrrolo[2,1-f][1,2,4]triazin-2-yl]-amine] |
| < 0.1 | < 0.1 |  |  | CN1CCC(c2ccc(Nc3ncc4ccc(-c5cccc(Cl)c5)n4n3)cc2)CC1 [Example 1131, [7-(3-Chloro-phenyl)-pyrrolo[2,1-f][1,2,4]triazin-2-yl]-[4-(1-methyl-piperidin-4-yl)-phenyl]-amine] |
| 0.1 to 1 | < 0.1 |  |  | COc1cc(C2CCN(C(=O)CN)CC2)ccc1Nc1ncc2ccc(-c3ccccc3OC)n2n1 [Example 823, 2-Amino-1-(4-{3-methoxy-4-[7-(2-methoxy-phenyl)-pyrrolo[2,1-f][1,2,4]triazin-2-ylamino]-phenyl}-piperidin-1-yl)-ethanone] |
| < 0.1 | 1 to 10 |  |  | COc1ccccc1-c1ccc2cnc(Nc3ccc4c(c3)N(C)CCC4)nn12 [Example 982, [7-(2-Methoxy-phenyl)-pyrrolo[2,1-f][1,2,4]triazin-2-yl]-(1-methyl-1,2,3,4-tetrahydro-quinolin-7-yl)-amine] |
|  |  | < 0.1 | < 0.1 | COc1ccc(Cl)cc1-c1ccc2cnc(Nc3cccc(N4CCN(CCO)CC4)c3)nn12 [Example 180, 2-(4-{3-[7-(5-Chloro-2-methoxy-phenyl)-pyrrolo[2,1-f][1,2,4]triazin-2-ylamino]-phenyl}-piperazin-1-yl)-ethanol] |
|  |  | < 0.1 | 0.1 to 1 | CN1CCN(C(=O)c2ccc(Nc3ncc4ccc(-c5cccc(Cl)c5)n4n3)cc2)CC1 [Example 320, {4-[7-(3-Chloro-phenyl)-pyrrolo[2,1-f][1,2,4]triazin-2-ylamino]-phenyl}-(4-methyl-piperazin-1-yl)-methanone] |
